Like-named read-outs stand apart in the source and are kept apart here.
Key:
5-HT1D = target: T1, 5-HT1D (Homo sapiens, UniProt P28221); experiment: PDSP off-target radioligand binding assay
T1 construct: NIMH PDSP
Method in brief: (§1)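 Single-point screen, 10 µM test compound, n=4; hot ligand ~Kd; NSB with 10 µM reference; 90 min RT, dark; PEI-soaked filter harvest, cold washes, scintillation count; % inhibition.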

Alpha2C = target: T2, Alpha2C (Homo sapiens, UniProt P18825); experiment: PDSP off-target radioligand binding assay
T2 construct: NIMH PDSP
T2 sequence (P18825 1-462): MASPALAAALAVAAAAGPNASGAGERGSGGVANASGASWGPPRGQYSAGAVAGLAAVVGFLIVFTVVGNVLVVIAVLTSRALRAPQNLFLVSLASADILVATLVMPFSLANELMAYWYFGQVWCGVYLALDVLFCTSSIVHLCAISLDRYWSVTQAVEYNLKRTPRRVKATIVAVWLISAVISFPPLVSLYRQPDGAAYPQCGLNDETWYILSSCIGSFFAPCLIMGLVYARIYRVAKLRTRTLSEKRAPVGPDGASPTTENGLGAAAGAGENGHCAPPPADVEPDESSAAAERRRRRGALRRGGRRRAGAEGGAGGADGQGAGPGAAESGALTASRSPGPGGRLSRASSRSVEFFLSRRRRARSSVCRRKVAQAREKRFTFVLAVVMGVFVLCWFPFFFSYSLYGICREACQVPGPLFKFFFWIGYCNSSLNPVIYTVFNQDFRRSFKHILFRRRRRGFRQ
Method in brief: as §1

[1] = target: T3, human recombinant orexin OX1 receptors (Homo sapiens, UniProt O43613); experiment: Human Orexin GPCR Binding (Agonist Radioligand) Assay, [125I] Orexin A competition
T3 construct: host or cells: CHO-S cells
T3 sequence (O43613 1-425): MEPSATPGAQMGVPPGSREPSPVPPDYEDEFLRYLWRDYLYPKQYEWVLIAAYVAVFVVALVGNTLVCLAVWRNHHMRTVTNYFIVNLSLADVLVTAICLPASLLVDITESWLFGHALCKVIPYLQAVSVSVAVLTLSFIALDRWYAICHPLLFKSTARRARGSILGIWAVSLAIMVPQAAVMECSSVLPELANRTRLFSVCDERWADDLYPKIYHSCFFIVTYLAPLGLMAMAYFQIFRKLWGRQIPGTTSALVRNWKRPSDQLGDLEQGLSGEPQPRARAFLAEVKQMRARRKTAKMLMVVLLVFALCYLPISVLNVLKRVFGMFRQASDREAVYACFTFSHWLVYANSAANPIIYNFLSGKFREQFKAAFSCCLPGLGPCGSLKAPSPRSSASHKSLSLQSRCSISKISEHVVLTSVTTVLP
Method: (§2) Radioligand competition binding assays were performed by Panlabs, Eurofins Pharma Discovery Services. Briefly, human recombinant orexin OX1 receptors expressed in CHO-S cells were used in modified HEPES buffer pH 7.4. […] Orexin A for 60 minutes at 25 °C. […] Orexin A specifically binding. Human recombinant OX2 receptors were used in modified HEPES buffer pH 7.4. […] Orexin A for 180 minutes at 25 °C. […] Orexin A specifically bound.

[2] = target: T4, Human recombinant OX2 receptors (Homo sapiens, UniProt O43614); experiment: as above
T4 sequence (O43614 1-444): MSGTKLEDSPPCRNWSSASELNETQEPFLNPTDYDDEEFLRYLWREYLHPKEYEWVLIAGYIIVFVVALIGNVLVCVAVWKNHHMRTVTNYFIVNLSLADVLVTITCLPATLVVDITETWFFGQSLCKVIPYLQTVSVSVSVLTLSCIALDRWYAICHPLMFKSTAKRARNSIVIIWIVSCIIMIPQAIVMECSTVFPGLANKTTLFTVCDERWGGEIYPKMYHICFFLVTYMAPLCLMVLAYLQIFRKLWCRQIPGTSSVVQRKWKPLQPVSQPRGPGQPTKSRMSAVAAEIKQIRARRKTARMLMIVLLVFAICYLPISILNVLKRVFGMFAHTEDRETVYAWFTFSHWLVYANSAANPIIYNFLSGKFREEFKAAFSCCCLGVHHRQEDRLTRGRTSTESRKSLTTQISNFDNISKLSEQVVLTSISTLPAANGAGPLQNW
Method: as §2

40 other CNS targets = experiment: Off-target binding (NIMH PDSP); conditions: 10 µM
Method: Table S1. Off binding data of CW24.
The off-target binding assays were performed at PDSP with their standard protocol (https://pdspdb.unc.edu/pdspWeb/content/UNC-CH%20Protocol%20Book.pdf). In radioligand binding assays, CW24 was tested at a single concentration (10 µM) and in quadruplicate in 96-well plates. The binding assays were carried out in a final of volume of 125 µl per well in appropriate binding buffers. The hot ligand concentration is usually at a concentration close to the Kd (unless otherwise indicated). Total binding and nonspecific binding are determined in the absence and presence of 10 µM of the appropriate reference compound, respectively. In brief, plates are usually incubated at room temperature and in the dark for 90 mins. Reactions are stopped by vacuum filtration onto 0.3% polyethyleneimine (PEI) soaked 96-well filter mats using a 96-well Filtermate harvester, followed by three washes with cold wash buffers (for details, see Tables 2 to 24). Scintillation cocktail is then melted onto the microwave-dried filters on a hot plate and radioactivity is counted in a Microbeta counter.
Receptor % Inhibition 1 % Inhibition 2 % Inhibition 3 % Inhibition 4 Mean±SD %

[3] = Assessment of Lipophilicity (Log D; pH 7.4); format: physicochemical
Method: Log D was determined according to methods identical to those we previously reported.

[4] = quadruplicate, read-out: Mean±SD % inhibition
[5] = replicate 1, read-out: % Inhibition 1
[6] = replicate 2, read-out: % Inhibition 2
[7] = replicate 3, read-out: % Inhibition 3
[8] = replicate 4, read-out: % Inhibition 4

T1 sequence (P28221 whole entry, species assumed): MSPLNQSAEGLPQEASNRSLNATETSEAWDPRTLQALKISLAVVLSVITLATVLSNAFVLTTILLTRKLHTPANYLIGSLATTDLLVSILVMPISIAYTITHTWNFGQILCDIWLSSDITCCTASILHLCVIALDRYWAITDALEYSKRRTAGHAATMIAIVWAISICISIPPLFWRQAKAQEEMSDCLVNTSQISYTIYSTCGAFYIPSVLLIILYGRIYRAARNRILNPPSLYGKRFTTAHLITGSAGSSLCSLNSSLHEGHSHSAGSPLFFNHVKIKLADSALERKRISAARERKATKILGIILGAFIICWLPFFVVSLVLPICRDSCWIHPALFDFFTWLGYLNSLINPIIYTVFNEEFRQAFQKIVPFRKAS

SMILES: COc1ccnc(N2CCC3(CCCN(Cc4cn(C)c5ccccc45)C3=O)CC2)n1 [CW24]
- inhibition at 10 µM (5-HT1D; [4]): 23.5 ± 9.4%
- inhibition at 10 µM (5-HT1D; [5]): 32.1%
- inhibition at 10 µM (5-HT1D; [6]): 20%
- inhibition at 10 µM (5-HT1D; [7]): 11.9%
- inhibition at 10 µM (5-HT1D; [8]): 30.2%
- inhibition at 10 µM (Alpha2C; [4]): 11.1 ± 20.6%
- inhibition at 10 µM (Alpha2C; [5]): 38.6%
- inhibition at 10 µM (Alpha2C; [6]): 2.3%
- inhibition at 10 µM (Alpha2C; [7]): -9.91%
- inhibition at 10 µM (Alpha2C; [8]): 13.3%
- increase in potency compared to IPSU binding (OX1R) ([1]; CW24 vs IPSU): ~ 5 fold
- IC50 ([1]; competition binding against [^125I] orexin, read-out: IC50 OX1R): 253 nM
- increase in potency compared to IPSU binding (OX2R) ([2]; CW24 vs IPSU): ~ 2 fold
- IC50 ([2]; competition binding against [^125I] orexin, read-out: IC50 OX2R): 1410 nM
- selectivity for OXRs compared to 40 other CNS targets (40 other CNS targets): selective
- logD [3]: 2.3
